Test results: patent publication US20210254014A1, “GROWTH INHIBITOR” (Kyoto University, priority 2018, published 2021)

Legend:
[1] = test system: Ki67-positive cells; assay: Ki67-positive cells by flow cytometry after 4 days of treatment with FGFR1 inhibitors at three concentrations (Example 3); format: cell-based
Description: The number of Ki67-positive cells in the obtained cell population was evaluated by flow cytometry.

[2] = test system: endocrine progenitor cells derived from human iPS cells; details: cited from earlier work
[3] = test system: rat myoblasts; details: cited from earlier work
[4] = test system: Ki67-positive cells; assay: Ki67-positive cells by flow cytometry in the insulin-producing cell population obtained by treating an endocrine progenitor cell population for 12 days (Example 1); format: cell-based, human; details: 1 μM, mean ± standard deviation of five experiments, absent control 10.78 ± 4.09%
Description: The induction of differentiation of the endocrine progenitor cell population into an insulin-producing cell population was carried out according to the above step 6) or the previous report (Nature Biotechnology 2014; 32: 1121-1133).
(§1) The endocrine progenitor cell population obtained by the induction of differentiation from iPS cells were cultured for 12 days in a medium for induction of differentiation (Improved MEM/1% B27/Penicillin Streptomycin) containing differentiation factors (ALK5 inhibitor II, T3, LDN, γ-secretase inhibitor RO, and ascorbic acid) and an FGF receptor 1 inhibitor (CAS192705-79-6) to obtain an insulin-producing cell population. The number of Ki67-positive cells in the obtained cell population was evaluated by flow cytometry.

[5] = test system: rat myoblasts; details: cited from earlier work; remark: listed apart in the source
[6] = test system: human placental blood vessels; details: cited from earlier work
[7] = test system: insulin-positive (and NKX6.1-positive) cells; assay: Insulin-positive (and NKX6.1-positive) cells by flow cytometry, timing of treatment (Example 2); format: cell-based; details: 1 μM, relative value, untreated control defined as 100%
Description: as §1, with “1) An” for “The”, “11” for “12”, “population.” for “population. The number of Ki67-positive cells in the obtained cell population was evaluated by flow cytometry.”
(§2) 2) An endocrine progenitor cell population obtained by the induction of differentiation from iPS cells were cultured for 4 days in a medium for induction of differentiation (Improved MEM/1% B27/Penicillin Streptomycin) containing differentiation factors (ALK5 inhibitor II, T3, LDN, γ-secretase inhibitor RO, and ascorbic acid) and thereby induced to differentiate into an insulin-producing cell population. Subsequently, an FGF receptor 1 inhibitor (CAS192705-79-6, 1 μM) was added to a medium for induction of differentiation (Improved MEM/1% B27/Penicillin Streptomycin) containing differentiation factors (ALK5 inhibitor II, T3, LDN, γ-secretase inhibitor RO, and ascorbic acid), and the cells were cultured therein for 7 days.
3) An endocrine progenitor cell population obtained by the induction of differentiation from iPS cells were cultured for 7 days in a medium for induction of differentiation (Improved MEM/1% B27/Penicillin Streptomycin) containing differentiation factors (ALK5 inhibitor II, T3, LDN, γ-secretase inhibitor RO, and ascorbic acid) and thereby induced to differentiate into an insulin-producing cell population. […]
The number of insulin-positive (and NKX6.1-positive) cells in the cell population obtained by each of the above methods 1), 2), and 3) was counted by flow cytometry. The proportion of insulin-positive (and NKX6.1-positive) cells in each method was calculated as a relative value when the number of insulin-positive (and NKX6.1-positive) cells in the control cell population obtained by the above method 4) was defined as 100%.

[8] = test system: grafts; assay: Autopsy findings and immunohistological staining of grafts excised 5 weeks after transplantation; format: in vivo, mice; details: cell population treated with 1 μM for 12 days, compared with untreated cell population
Excerpt: (§3) The insulin-producing cell population obtained by culture in the medium for induction of differentiation containing CAS192705-79-6 in the preceding section (1) or an insulin-producing cell population obtained by culture in a medium for induction of differentiation free from CAS192705-79-6 as a comparative example was transplanted beneath the capsule of the kidney using immunodeficient NOD/SCID mice having streptozotocin-induced insulin-deficient diabetes mellitus. For follow-up after the transplantation, human C-peptide concentrations in blood and blood glucose levels were measured. The grafts were excised 5 weeks after the transplantation.
The excised grafts were fixed and dehydrated, and then, frozen sections were prepared and subjected to immunohistological staining in order to evaluate unintended cells. The cells of interest that could be expected to maturate into pancreatic islet cells in vivo were evaluated using insulin positivity (and NKX6.1 positivity) or glucagon positivity as an indicator, and unintended cells having the possibility of adversely affecting long-term graft survival of the cells of interest were evaluated using Ki67 positivity as an indicator.

[9] = test system: immunodeficient NOD/SCID mice having streptozotocin-induced insulin-deficient diabetes mellitus; assay: Transplantation of the FGF receptor 1 inhibitor-treated insulin-producing cell population beneath the kidney capsule; human C-peptide in blood and blood glucose; format: in vivo; details: cell population treated with 1 μM for 12 days
Description: In the description below, the preparation of mice and the transplantation of cells were performed in accordance with known methods.
as §3, with “The grafts were excised 5 weeks after the transplantation.” left out

[10] = test system: Ki67-positive cells; assay: Ki67-positive cells by flow cytometry, timing of treatment during insulin-producing cell production (Example 2); format: cell-based; details: 1 μM, mean ± SD of three experiments, absent control 7.57 ± 1.05%
Description: as §1, with “1) An” for “The”, “11” for “12”, “population.” for “population. The number of Ki67-positive cells in the obtained cell population was evaluated by flow cytometry.”
as §2
as §2, with “3) An” for “2) An”, “for 7” for “for 4”, “for 4” for “for 7”, “days. […]” for “days.”
The number of Ki67-positive cells in the cell population obtained by each of the above methods 1), 2), and 3) was counted by flow cytometry to determine the proportion of Ki67-positive cells in each cell population.

[11] = Table 4, 0.3 μM, absent control 4.13%
[12] = Table 4, 1 μM, absent control 4.13%

CCN(CC)CCCCNc1ncc2cc(-c3cc(OC)cc(OC)c3)c(NC(=O)NC(C)(C)C)nc2n1 [PD-173074]
Proportion of Ki67-positive cells (%) ([1]; Table 5, 0.1 μM, absent control 2.7%): 0.7%; | Proportion of Ki67-positive cells (%) ([1]; Table 5, 1 μM, absent control 2.7%): 0.7%; | Proportion of Ki67-positive cells (%) ([1]; Table 5, 5 μM, absent control 2.7%): 0.5%;

COCCCOc1ccnc(C[S+]([O-])c2nc3ccccc3[nH]2)c1C (stereo not drawn) [E-3810]
Proportion of Ki67-positive cells (%) [1, 11]: 2.74%; | Proportion of Ki67-positive cells (%) [1, 12]: 1.51%; | Proportion of Ki67-positive cells (%) ([1]; Table 4, 10 μM, absent control 4.13%): 0.67%;

COc1cc(OC)cc(-c2cc3cnc(N)nc3nc2NC(=O)NC(C)(C)C)c1 [CAS192705-79-6, 1-[2-amino-6-(3,5-dimethoxyphenyl)-pyrido(2,3-d)pyrimidin-7-yl]-3-tert-butylurea]
Differentiation of endocrine progenitor cells [2]: can be promoted | Cell proliferation caused by PDGE stimulation [3]: not inhibit cell proliferation caused by PDGE stimulation | Content percentage of Ki67-positive cells (before transplantation) [4]: 0.98 ± 0.29% | Cell proliferation caused by bFGF stimulation [5]: inhibit cell proliferation caused by bFGF stimulation | Elongation of microvessels [6]: inhibit the elongation of microvessels | Proportion of insulin-positive (and NKX6.1-positive) cells ([7]; for last 4 days): 91 ± 16% | Proportion of insulin-positive (and NKX6.1-positive) cells ([7]; for last 7 days): 88 ± 13% | Proportion of insulin-positive (and NKX6.1-positive) cells ([7]; from start (11 days)): 45 ± 15% | Bloatedness of the grafts [8]: drastic inhibition of bloatedness of the grafts | Human C-peptide concentration in blood 4 months after transplantation ([9]; transplanted beneath the kidney capsule, untreated cells 1440 ± 573): 1486 ± 305 pM | Blood glucose level 4 months after transplantation ([9]; 4 months later, untreated cells 85 ± 16): 86 ± 22 mg/dL | Blood glucose level at time of transplantation ([9]; at time of transplantation (baseline)): 516 ± 33 mg/dL | Proportion of Ki67-positive cells ([10]; for last 4 days): 0.57 ± 0.15% | Proportion of Ki67-positive cells ([10]; for last 7 days): 0.47 ± 0.15% | Proportion of Ki67-positive cells ([10]; from start (11 days)): 0.57 ± 0.35% | Proportion of Ki67-positive cells (%) ([1]; Table 4, 0.1 μM, absent control 4.13%): 2.15%; | Proportion of Ki67-positive cells (%) [1, 11]: 0.99%; | Proportion of Ki67-positive cells (%) [1, 12]: 0.7%;
